Counter-ions that a name gives are not always drawn.
Each compound was assayed against T1, human NK-2 receptor (Homo sapiens, UniProt P21452) (assay: binding test, affinity for the human NK-2 receptor, competition with [125I]NKA on transfected CHO cell membranes). Details: CHO cell membranes transfected with NK-2 receptor of human ileum; [125I]NKA 100 pM; 30 min, 20° C.
T1 construct: expressed in transfected cells; host or cells: CHO (Chinese hamster ovary) cells, membranes
T1 sequence (P21452 1-398): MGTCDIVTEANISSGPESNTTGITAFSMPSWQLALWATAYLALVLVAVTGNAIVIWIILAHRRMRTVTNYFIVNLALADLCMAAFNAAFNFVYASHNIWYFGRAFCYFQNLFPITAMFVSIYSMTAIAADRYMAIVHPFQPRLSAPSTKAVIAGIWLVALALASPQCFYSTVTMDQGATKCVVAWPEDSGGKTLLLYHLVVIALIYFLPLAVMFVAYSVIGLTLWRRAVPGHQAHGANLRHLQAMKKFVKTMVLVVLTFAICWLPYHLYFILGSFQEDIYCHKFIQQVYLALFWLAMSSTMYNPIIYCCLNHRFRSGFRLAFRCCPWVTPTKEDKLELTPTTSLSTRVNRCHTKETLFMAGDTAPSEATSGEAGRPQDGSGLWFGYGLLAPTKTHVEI
Method: The evaluation of the antagonist activity on NK-2 receptors has been assessed by binding and functional tests according to that already described in literature in relation to NK-2 antagonists.
The test substances have been tested within a concentration range from 0.01 nM to 10 nM. At the end of the incubation time (30 min, 20° C.) the samples have been filtered and radioactivity has been determined using a gamma-counter.
With `Cc1cc2oc(C(=O)NC3(C(=O)N[C@H](Cc4ccccc4)C(=O)NCC4CCN(CC5CCOCC5)CC4)CCCC3)c(C)c2cc1C` [Example 148, 3,5,6-Trimethyl-benzofuran-2-carboxylic acid [1-(2-phenyl-1-{[1R-(tetrahydro-pyran-4-ylmethyl)-piperidin-4-ylmethyl]-carbamoyl}-ethylcarbamoyl)-cyclopentyl]-amide] the Ki was 0.316 nM. Work on `N[C@H]1CCCC[C@@H]1NC(=O)C1CCCC(NC(=O)[C@@H](Cc2ccccc2)NC(=O)C2(NC(=O)c3cc4ccccc4s3)CCCC2)C1` (stereo partly drawn) [Example 31, acid-3-cis-N^γ{N^α[N^α(benzo[b]thiophen-2-ylcarbonyl)-1-aminocyclopentan-1-carboxy]-D-phenylalanil}aminocyclohexan-1-carboxylic-N-[(1S,2S)-aminocyclohexyl]amide] yielded a Ki of 0.0794 nM. With `Cc1ccc2sc(C(=O)NC3(C(=O)N[C@H](Cc4ccccc4)C(=O)NCC4CCN(CC5CCOCC5)CC4)CCCC3)cc2c1` [Example 138, 5-Methyl-benzo[b]thiophene-2-carboxylic acid [1-(2-phenyl-1R-{[1-(tetrahydro-pyran-4-ylmethyl)piperidin-ylmethyl]-carbamoyl}-ethylcarbamoyl)-cyclopentyl]-amide] the pKi was 9.8. Work on `O=C(NC1(C(=O)N[C@H](Cc2ccccc2)C(=O)NCC2CCN(CC3CCOCC3)CC2)CCCC1)c1cc2cccc(Cl)c2s1` [Example 137, 7-Chloro-benzo[b]thiophene-2-carboxylic acid [1-(2-phenyl-1R-{[1-(tetrahydro-pyran-4-ylmethyl)-piperidin-4-ylmethyl]-carbamoyl}-ethylcarbamoyl)-cyclopentyl]-amide] yielded a Ki of 0.0794 nM. “N^γ{N^α[N^α(benzo[b]thiophen-2-ylcarbonyl)-1-aminocyclopentan-1-carboxy]-D-phenylalanyl}-(1R,3S)-3-aminocyclopentane-1-carboxylic-acid-N-((1S,2S)2-dimethylaminocyclohexyl) amide hydrochloride salt [Example 8]” gave a pKi of 9.6. With `O=C(NC1(C(=O)N[C@H](Cc2ccccc2)C(=O)NCC2CCN(CC3CCOCC3)CC2)CCCC1)c1cc2cccc(C(F)(F)F)c2s1` [Example 136, 7-Trifluoromethyl-benzo[b]thiophene-2-carboxylic acid [1-(2-phenyl-1R-{[1-(tetrahydro-pyran-4-ylmethyl)piperidin-4-ylmethyl]-carbamoyl}-ethylcarbamoyl)-cyclopentyl]-amide] the Ki was 0.0631 nM. For `CC[C@@](C)(NC(=O)C=Cc1ccc(C)cc1)C(=O)N[C@H](Cc1ccccc1)C(=O)N[C@H]1CC[C@@H](C(=O)N[C@H]2CCCC[C@@H]2N)C1.O=C(O)C(F)(F)F` [Example 15, N^γ{N^α[N^α(4-methylcinnamoyl)-(R)-α-methyl-α-ethylglycyl]-D-phenylalanyl}-(1R,3S)-3-amino cyclopentane-1-carboxylic-acid-N-((1S,2S)-2-aminocyclohexyl) amide trifluoroacetate salt], the pKi was 10.0. Work on `Cc1ccc2c(c1)cc(C(=O)NC1(C(=O)N[C@H](Cc3ccccc3)C(=O)NCCCN3CCOCC3)CCCC1)n2C` [Example 114, 1,5-Dimethyl-1H-indole-2-carboxylic acid {1-[1R-(3-morpholinyl-propylcarbamoyl)-2-phenyl-ethylcarbamoyl]-cyclopentyl}-amide] yielded a Ki of 1.58 nM. `O=C(NC1(C(=O)N[C@H](Cc2ccccc2)C(=O)NCCC2CCN(C[C@@H]3CCCN3)CC2)CCCC1)c1ccc2cc(Br)ccc2c1` [Example 84, 6-Bromo-naphthalene-2-carboxylic acid (1-{2-phenyl-1(R)-[2-(1-pyrrolidin-2(S)-ylmethyl-piperidin-4-yl)ethylcarbamoyl]-ethylcarbamoyl}-cyclopentyl)amide TFA salt] was tested, and the Ki was 0.316 nM.
